Results as given in patent publication US20260042755A1, “GPR6 INVERSE AGONISTS” (MapLight Therapeutics, Inc., priority 2022, published 2026).

Legend:
[1] = biological target: T1, GPR6 (Homo sapiens, UniProt P46095); experiment: GPR6 antagonist functional cAMP assay (LANCE Ultra cAMP TR-FRET, CHO cells stably expressing GPR6); type: cell-based; details: CHO cells stably expressing GPR6, cAMP assay (Example 24)
T1 construct: expressed in transfected cells; host or cells: CHO cells
Outline: (§1)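 10,000 cells/well; KRB buffer + 0.1% BSA + 150 μM Ro 20-1724; cpd 45 min, 37 °C, 0.1% DMSO; TR-FRET cAMP, 665 nm; 4-PL fit, normalized to DMSO (0.1%) and reference (100%) → IC50.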

[2] = biological target: T2, GPR3 (Homo sapiens, UniProt P46089); experiment: GPR3 antagonist functional cAMP assay (LANCE Ultra cAMP TR-FRET, CHO cells stably expressing GPR3); type: cell-based; details: CHO cells stably expressing GPR3, cAMP assay (Example 24)
T2 construct: expressed in transfected cells; host or cells: CHO cells
T2 sequence (P46089 whole entry, species assumed): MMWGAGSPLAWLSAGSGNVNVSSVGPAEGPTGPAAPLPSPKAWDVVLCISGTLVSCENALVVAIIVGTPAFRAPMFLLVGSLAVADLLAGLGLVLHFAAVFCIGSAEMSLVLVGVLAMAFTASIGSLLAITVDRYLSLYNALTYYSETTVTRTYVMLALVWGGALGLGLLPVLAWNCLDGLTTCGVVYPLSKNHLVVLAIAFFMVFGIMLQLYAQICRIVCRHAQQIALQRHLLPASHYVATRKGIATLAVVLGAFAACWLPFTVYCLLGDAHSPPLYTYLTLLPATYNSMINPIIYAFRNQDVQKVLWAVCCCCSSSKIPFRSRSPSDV
Outline: as §1

T1 sequence (P46095 whole entry): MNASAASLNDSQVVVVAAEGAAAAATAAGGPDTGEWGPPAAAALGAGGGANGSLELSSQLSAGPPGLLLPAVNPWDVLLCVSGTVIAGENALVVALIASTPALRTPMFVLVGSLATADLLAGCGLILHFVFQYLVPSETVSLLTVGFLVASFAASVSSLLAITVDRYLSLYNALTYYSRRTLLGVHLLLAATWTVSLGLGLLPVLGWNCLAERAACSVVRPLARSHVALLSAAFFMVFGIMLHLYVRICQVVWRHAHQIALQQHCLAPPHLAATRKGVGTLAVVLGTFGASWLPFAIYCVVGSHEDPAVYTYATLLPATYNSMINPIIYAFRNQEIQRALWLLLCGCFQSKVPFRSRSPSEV

| Compound | IC50 [1] [nM] | IC50 [2] [nM] |
| --- | --- | --- |
| CC(C)OC(=O)N1CCc2nc(N3CCC(Oc4ccc(F)cc4F)CC3)c(-c3cn[nH]c3)nc2C1 [Compound 121, propan-2-yl 2-[4-(2,4-difluorophenoxy)piperidin-1-yl]-3-(1H-pyrazol-4-yl)-c5H,6H,7H,8H-pyrido[3,4-b]pyrazine-6-carboxylate] | 100 to 1000 | 1000 to 30000 |
| CCS(=O)(=O)N1CCc2nc(N3CCC(Oc4ccc(F)cc4F)CC3)c(-c3cn[nH]c3)nc2C1 [Compound 123, 4-(2,4-difluorophenoxy)-1-[6-(ethanesulfonyl)-3-(1H-pyrazol-4-yl)-5H,6H,7H,8H-pyrido[3,4-b]pyrazin-2-yl]piperidine] | 100 to 1000 | 1000 to 30000 |
| Fc1ccc(OC2CCN(c3nc4c(nc3-c3cn[nH]c3)CNCC4)CC2)c(F)c1 [Compound 124, 4-(2,4-difluorophenoxy)-1-[3-(1H-pyrazol-4-yl)-5H,6H,7H,8H-pyrido[3,4-b]pyrazin-2-yl]piperidine] | 1000 to 30000 | 1000 to 30000 |
| COC(=O)N1CCc2nc(N3CCC(Oc4ccc(F)cc4F)CC3)c(-c3cnn(C4CCCCO4)c3)nc2C1 (centres unmarked) [Compound 125, methyl 2-[4-(2,4-difluorophenoxy)piperidin-1-yl]-3-[1-(oxan-2-yl)-1H-pyrazol-4-yl]-5H,6H,7H,8H-pyrido[3,4-b]pyrazine-6-carboxylate] | 100 to 1000 | 1000 to 30000 |
| COc1ccc(-c2nc3c(nc2N2CCC(Oc4ccc(F)cc4F)CC2)CCN(C(C)=O)C3)cn1 [Compound 126, 1-{2-[4-(2,4-difluorophenoxy)piperidin-1-yl]-3-(6-methoxypyridin-3-yl)-5H,6H,7H,8H-pyrido[3,4-b]pyrazin-6-yl}ethan-1-one] | 100 to 1000 | 1000 to 30000 |
| Cn1cc(-c2nc3cnccc3nc2N2CCN(Cc3ccc(F)cc3F)C(=O)C2)cn1 [Compound 127, 1-[(2,4-difluorophenyl)methyl]-4-[3-(1-methyl-1H-pyrazol-4-yl)pyrido[3,4-b]pyrazin-2-yl]piperazin-2-one] | ≥ 30000 | ≥ 30000 |
| Cn1cc(-c2nc3cnccc3nc2N2CCN(C(=O)c3ccc(F)cc3F)CC2)cn1 [Compound 128, (2,4-difluorophenyl)(4-(3-(1-methyl-1H-pyrazol-4-yl)pyrido[3,4-b]pyrazin-2-yl)piperazin-1-yl)methanone] | 1000 to 30000 | ≥ 30000 |
| CC(=O)N1CCc2nc(N3CCC(Oc4ccc(F)cc4F)CC3)c(-c3cccc4nccn34)nc2C1 [Compound 129, 1-{2-[4-(2,4-difluorophenoxy)piperidin-1-yl]-3-{imidazo[1,2-a]pyridin-5-yl}-5H,6H,7H,8H-pyrido[3,4-b]pyrazin-6-yl}ethan-1-one] | 1000 to 30000 | 1000 to 30000 |
| Fc1ccc(-c2ncc3n2CCN(c2nc4ccncc4nc2-c2cn[nH]c2)C3)c(F)c1 [Compound 130, 4-{2-[3-(2,4-difluorophenyl)-5H,6H,7H,8H-imidazo[1,5-a]pyrazin-7-yl]pyrido[3,4-b]pyrazin-3-yl}-1H-pyrazole] | ≥ 30000 | ≥ 30000 |
| CC(=O)N1CCc2nc(N3CCC(Oc4ccc(F)cc4F)CC3)c(-c3cccc(C(=O)N(C)C)n3)nc2C1 [Compound 131, 6-(6-acetyl-2-(4-(2,4-difluorophenoxy)piperidin-1-yl)-5,6,7,8-tetrahydropyrido[3,4-b]pyrazin-3-yl)-N,N-dimethylpicolinamide] | 1000 to 30000 | 1000 to 30000 |
| CNC(=O)c1cccc(-c2nc3c(nc2N2CCC(Oc4ccc(F)cc4F)CC2)CCN(C(C)=O)C3)n1 [Compound 132, 6-{6-acetyl-2-[4-(2,4-difluorophenoxy)piperidin-1-yl]-5H,6H,7H,8H-pyrido[3,4-b]pyrazin-3-yl}-N-methylpyridine-2-carboxamide] | 1000 to 30000 | 1000 to 30000 |
| CC(=O)N1CCc2nc(N3CCC(Oc4ccc(F)cc4F)CC3)c(-c3cccc(CO)n3)nc2C1 [Compound 133, 1-(2-(4-(2,4-difluorophenoxy)piperidin-1-yl)-3-(6-(hydroxymethyl)pyridin-2-yl)-7,8-dihydropyrido[3,4-b]pyrazin-6(5H)-yl)ethan-1-one] | 1000 to 30000 | 1000 to 30000 |
| CC(=O)N1CCc2nc(N3CCC(Oc4ccc(F)cc4F)CC3)c(-c3cnn(C4CNC4)c3)nc2C1 [Compound 134, 1-{3-[1-(azetidin-3-yl)-1H-pyrazol-4-yl]-2-[4-(2,4-difluorophenoxy)piperidin-1-yl]-5H,6H,7H,8H-pyrido[3,4-b]pyrazin-6-yl}ethan-1-one] | 1000 to 30000 | 1000 to 30000 |
| CC(=O)N1CCc2nc(N3CCC(Oc4ccc(F)cc4F)CC3)c(-c3cn[nH]c3F)nc2C1 [Compound 135, 1-(2-(4-(2,4-difluorophenoxy)piperidin-1-yl)-3-(5-fluoro-1H-pyrazol-4-yl)-7,8-dihydropyrido[3,4-b]pyrazin-6(5H)-yl)ethanone] | 100 to 1000 | 1000 to 30000 |
| CC(=O)N1CCc2nc(N3CCC(Oc4ccc(F)cc4F)CC3)c(-c3cncc(Cl)c3)nc2C1 [Compound 136, 1-[3-(5-chloropyridin-3-yl)-2-[4-(2,4-difluorophenoxy)piperidin-1-yl]-5H,6H,7H,8H-pyrido[3,4-b]pyrazin-6-yl]ethan-1-one] | 100 to 1000 | 1000 to 30000 |
| CC(=O)N1CCc2nc(N3CCC(Oc4ccc(F)cc4F)CC3)c(-c3cccc(Cl)n3)nc2C1 [Compound 137, 1-(3-(6-chloropyridin-2-yl)-2-(4-(2,4-difluorophenoxy)piperidin-1-yl)-7,8-dihydropyrido[3,4-b]pyrazin-6(5H)-yl)ethanone] | 100 to 1000 | 1000 to 30000 |
| CC(=O)N1CCc2nc(N3CCC(Oc4ccc(F)cc4F)CC3)c(-c3cnn(CCN(C)C)c3)nc2C1 [Compound 138, 1-{2-[4-(2,4-difluorophenoxy)piperidin-1-yl]-3-{1-[2-(dimethylamino)ethyl]-1H-pyrazol-4-yl}-5H,6H,7H,8H-pyrido[3,4-b]pyrazin-6-yl}ethan-1-one] | 1000 to 30000 | 1000 to 30000 |
| CN1CCc2nc(N3CCC(Oc4ccc(F)cc4F)CC3)c(-c3cn[nH]c3)nc2C1 [Compound 139, 4-(2,4-difluorophenoxy)-1-[6-methyl-3-(1H-pyrazol-4-yl)-5H,6H,7H,8H-pyrido[3,4-b]pyrazin-2-yl]piperidine] | 1000 to 30000 | 1000 to 30000 |
| OCCN1CCc2nc(N3CCC(Oc4ccc(F)cc4F)CC3)c(-c3cnn(C4CCCCO4)c3)nc2C1 (centres unmarked) [Compound 140, 2-{2-[4-(2,4-difluorophenoxy)piperidin-1-yl]-3-[1-(oxan-2-yl)-1H-pyrazol-4-yl]-5H,6H,7H,8H-pyrido[3,4-b]pyrazin-6-yl}ethan-1-ol] | 1000 to 30000 | 1000 to 30000 |
| OCCN1CCc2nc(N3CCC(Oc4ccc(F)cc4F)CC3)c(-c3cn[nH]c3)nc2C1 [Compound 141, 2-{2-[4-(2,4-difluorophenoxy)piperidin-1-yl]-3-(1H-pyrazol-4-yl)-5H,6H,7H,8H-pyrido[3,4-b]pyrazin-6-yl}ethan-1-ol] | 1000 to 30000 | 1000 to 30000 |
| COCCN1CCc2nc(N3CCC(Oc4ccc(F)cc4F)CC3)c(-c3cnn(C4CCCCO4)c3)nc2C1 (centres unmarked) [Compound 142, 4-(2,4-difluorophenoxy)-1-[6-(2-methoxyethyl)-3-[1-(oxan-2-yl)-1H-pyrazol-4-yl]-5H,6H,7H,8H-pyrido[3,4-b]pyrazin-2-yl]piperidine] | 1000 to 30000 | 1000 to 30000 |
| COCCN1CCc2nc(N3CCC(Oc4ccc(F)cc4F)CC3)c(-c3cn[nH]c3)nc2C1 [Compound 143, 4-(2,4-difluorophenoxy)-1-[6-(2-methoxyethyl)-3-(1H-pyrazol-4-yl)-5H,6H,7H,8H-pyrido[3,4-b]pyrazin-2-yl]piperidine] | 100 to 1000 | 1000 to 30000 |
| CNC(=O)CN1CCc2nc(N3CCC(Oc4ccc(F)cc4F)CC3)c(-c3cnn(C4CCCCO4)c3)nc2C1 (centres unmarked) [Compound 144, 2-{2-[4-(2,4-difluorophenoxy)piperidin-1-yl]-3-[1-(oxan-2-yl)-1H-pyrazol-4-yl]-5H,6H,7H,8H-pyrido[3,4-b]pyrazin-6-yl}-N-methylacetamide] | 1000 to 30000 | 1000 to 30000 |
| CNC(=O)CN1CCc2nc(N3CCC(Oc4ccc(F)cc4F)CC3)c(-c3cn[nH]c3)nc2C1 [Compound 145, 2-{2-[4-(2,4-difluorophenoxy)piperidin-1-yl]-3-(1H-pyrazol-4-yl)-5H,6H,7H,8H-pyrido[3,4-b]pyrazin-6-yl}-N-methylacetamide] | 1000 to 30000 | 1000 to 30000 |
| CNC(=O)C(C)N1CCc2nc(N3CCC(Oc4ccc(F)cc4F)CC3)c(-c3cnn(C4CCCCO4)c3)nc2C1 (centres unmarked) [Compound 146, 2-{2-[4-(2,4-difluorophenoxy)piperidin-1-yl]-3-[1-(oxan-2-yl)-1H-pyrazol-4-yl]-5H,6H,7H,8H-pyrido[3,4-b]pyrazin-6-yl}-N-methylpropanamide] | 1000 to 30000 | 1000 to 30000 |
| CNC(=O)C(C)N1CCc2nc(N3CCC(Oc4ccc(F)cc4F)CC3)c(-c3cn[nH]c3)nc2C1 (centres unmarked) [Compound 147, 2-{2-[4-(2,4-difluorophenoxy)piperidin-1-yl]-3-(1H-pyrazol-4-yl)-5H,6H,7H,8H-pyrido[3,4-b]pyrazin-6-yl}-N-methylpropanamide] | 1000 to 30000 | 1000 to 30000 |
| COCC(=O)N1CCc2nc(N3CCC(Oc4ccc(F)cc4F)CC3)c(-c3cn[nH]c3)nc2C1 [Compound 148, 1-{2-[4-(2,4-difluorophenoxy)piperidin-1-yl]-3-(1H-pyrazol-4-yl)-5H,6H,7H,8H-pyrido[3,4-b]pyrazin-6-yl}-2-methoxyethan-1-one] | < 100 | 1000 to 30000 |
| O=C(CN1CCOCC1)N1CCc2nc(N3CCC(Oc4ccc(F)cc4F)CC3)c(-c3cn[nH]c3)nc2C1 [Compound 149, 1-{2-[4-(2,4-difluorophenoxy)piperidin-1-yl]-3-(1H-pyrazol-4-yl)-5H,6H,7H,8H-pyrido[3,4-b]pyrazin-6-yl}-2-(morpholin-4-yl)ethan-1-one] | 100 to 1000 | 1000 to 30000 |
